Results published in publication PMC6149683, “In Vitro Investigation of the Interaction of Tolbutamide and Losartan with Human Serum Albumin in Hyperglycemia States” (Molecules : A Journal of Synthetic Chemistry and Natural …, 2017).
Read-outs that look alike come from different tables or passages of the source.

Key:
[1] = tested on: T1, non-glycated (HSA) and glycated (gHSAFRC) human serum albumin, Sudlow's site I and II; assay: Binding of fluorescent site-marker probes to glycated versus non-glycated albumin (fluorimetric titration)
T1 construct: human serum albumin (HSA, Lot No. 8234H) with fatty acids (fraction V) was purchased from MP Biomedicals LLC; purchased MP Biomedicals LLC (Illkirch, France) Lot No. 8234H (a lot number; no catalogue number given)

plasma protein = conditions: cited from earlier work
[2] = albumin 5 × 10^−6 mol∙L^−1 titrated with probe, 37 °C, Figure 7

| SMILES | probe fluorescence / binding with gHSAFRC compared with HSA [1, 2] | further results |
| --- | --- | --- |
| CN(C)c1cccc2c(S(N)(=O)=O)cccc12 [DNSA, 5-dimethylaminonaphthalene-1-sulfonamide] | no significant difference in the fluorescence intensity | – |
| CCCCc1nc(Cl)c(CO)n1Cc1ccc(-c2ccccc2-c2nn[nH]n2)cc1 [LOS, (2-butyl-4-chloro-1-{[2′-(1H-tetrazol-5-yl)-4-biphenylyl]methyl}-1H-imidazol-5-yl)methanol] | – | bound with plasma protein (plasma protein): 98.6–98.8% |
| CC(=O)CC(c1ccccc1)c1c(O)c2ccccc2oc1=O (centres unmarked) [WAR, warfarin] | – | probe fluorescence / binding with gHSAFRC compared with HSA [1]: stronger than with non-glycated albumin |
| CN(C)c1cccc2c(S(=O)(=O)N[C@@H](CCC(N)=O)C(=O)O)cccc12 [dGln, dansyl-L-glutamine] | stronger for glycated than non-modified albumin | – |
| CN(C)c1cccc2c(S(=O)(=O)N3CCC[C@H]3C(=O)O)cccc12 [dPro, N-dansyl-L-proline] | stronger for glycated than non-modified albumin | – |
